Laboratory results from patent US20250353853A1, “FLAVIVIRUS INHIBITORS” (IRBM S.P.A., priority 2022, published 2025).
Counter-ions that a name gives are not always drawn.

Test system: ZIKV replicon in Vero cells
Test: ZIKV Replication Inhibition Assay (replicon, NanoLuc)
Settings: Zika virus, Vero, 72 h, read-out: Zika Replicon EC50

SMILES	EC50 [nM]
NC[C@H](Cc1ccccc1)[n+]1cc([N-]C(=O)Nc2cccc(C(F)(F)F)c2)on1 [Example 54, (S)-(3-(1-amino-3-phenylpropan-2-yl)-1,2,3-oxadiazol-3-ium-5-yl)((3-(trifluoromethyl)phenyl)carbamoyl)amide formate]	> 20000
O=C([N-]c1c[n+](Cc2ccc(-c3ccc(CN4CCOCC4)cc3)cc2)no1)Nc1cccc(C(F)(F)F)c1 [Example 56, (3-((4′-(morpholinomethyl)-[1,1′-biphenyl]-4-yl)methyl)-1,2,3-oxadiazol-3-ium-5-yl)((3-(trifluoromethyl)phenyl)carbamoyl)amide]	1000 to 20000
NC[C@H](Cc1ccc(-c2ccccc2)cc1)[n+]1cc([N-]C(=O)Nc2cccc(C(F)(F)F)c2)on1 [Example 65, (S)-(3-(1-([1,1′-biphenyl]-4-yl)-3-aminopropan-2-yl)-1,2,3-oxadiazol-3-ium-5-yl)((3-(trifluoromethyl)phenyl)carbamoyl)amide formate]	1000 to 20000
NC[C@@H](Cc1ccc(-c2ccccc2)cc1)[n+]1cc([N-]C(=O)Nc2cccc(C(F)(F)F)c2)on1 [Example 66, (R)-(3-(1-([1,1′-biphenyl]-4-yl)-3-aminopropan-2-yl)-1,2,3-oxadiazol-3-ium-5-yl)((3-(trifluoromethyl)phenyl)carbamoyl)amide]	1000 to 20000
CC(=O)NC[C@H](Cc1ccc(-c2ccccc2)cc1)[n+]1cc([N-]C(=O)Nc2cccc(C(F)(F)F)c2)on1 [Example 70, (S)-(3-(1-(1,1′-biphenyl-4-yl)-3-acetamidopropan-2-yl)-1,2,3-oxadiazol-3-ium-5-yl)((3-(trifluoromethyl)phenyl)carbamoyl)amide]	> 20000
CC(=O)NC[C@@H](Cc1ccc(-c2ccccc2)cc1)[n+]1cc([N-]C(=O)Nc2cccc(C(F)(F)F)c2)on1 [Example 71, (R)-(3-(1-([1,1′-biphenyl]-4-yl)-3-acetamidopropan-2-yl)-1,2,3-oxadiazol-3-ium-5-yl)((3-(trifluoromethyl)phenyl)carbamoyl)amide]	> 20000
C[C@@H](c1ccc(Br)cc1)[n+]1cc([N-]C(=O)Nc2cncc(C(F)(F)F)c2)on1 [Example 76, (S)-(3-(1-(4-bromophenyl)ethyl)-1,2,3-oxadiazol-3-ium-5-yl)((5-(trifluoromethyl)pyridin-3-yl)carbamoyl)amide]	100 to 1000
C[C@@H](c1ccc(-c2cncnc2)cc1)[n+]1cc([N-]C(=O)Nc2cncc(C(F)(F)F)c2)on1 [Example 77, (S)-(3-(1-(4-(pyrimidin-5-yl)phenyl)ethyl)-1,2,3-oxadiazol-3-ium-5-yl)((5-(trifluoromethyl)pyridin-3-yl)carbamoyl)amide]	100 to 1000
Cc1noc(C)c1-c1ccc(C[n+]2cc([N-]C(=O)Nc3cccc(C(F)(F)F)c3)on2)cc1 [Example 78, (3-(4-(3,5-dimethylisoxazol-4-yl)benzyl)-1,2,3-oxadiazol-3-ium-5-yl)((3-(trifluoromethyl)phenyl)carbamoyl)amide]	< 100
Cc1ncncc1-c1ccc([C@H](C)[n+]2cc([N-]C(=O)Nc3cccc(C(F)(F)F)c3)on2)cc1 [Example 79, (S)-(3-(1-(4-(4-methylpyrimidin-5-yl)phenyl)ethyl)-1,2,3-oxadiazol-3-ium-5-yl)((3-(trifluoromethyl)phenyl)carbamoyl)amide]	< 100
O=C([N-]c1c[n+](Cc2ccc(-c3cncnc3C(F)(F)F)cc2)no1)Nc1cccc(C(F)(F)F)c1 [Example 80, ((3-(trifluoromethyl)phenyl)carbamoyl)(3-(4-(4-(trifluoromethyl)pyrimidin-5-yl)benzyl)-1,2,3-oxadiazol-3-ium-5-yl)amide]	< 100
Cc1ncnc(C)c1-c1ccc(C[n+]2cc([N-]C(=O)Nc3cccc(C(F)(F)F)c3)on2)cc1 [Example 81, (3-(4-(4,6-dimethylpyrimidin-5-yl)benzyl)-1,2,3-oxadiazol-3-ium-5-yl)((3-(trifluoromethyl)phenyl)carbamoyl)amide]	< 100
Cc1ncncc1-c1ccc([C@@H](C)[n+]2cc([N-]C(=O)Nc3cccc(C(F)(F)F)c3)on2)cc1 [Example 82, (R)-(3-(1-(4-(4-methylpyrimidin-5-yl)phenyl)ethyl)-1,2,3-oxadiazol-3-ium-5-yl)((3-(trifluoromethyl)phenyl)carbamoyl)amide]	100 to 1000
Cc1ncncc1-c1cccc(C[n+]2cc([N-]C(=O)Nc3cccc(C(F)(F)F)c3)on2)c1 [Example 83, (3-(3-(4-methylpyrimidin-5-yl)benzyl)-1,2,3-oxadiazol-3-ium-5-yl)((3-(trifluoromethyl)phenyl)carbamoyl)amide]	100 to 1000
COc1ncncc1-c1cccc(C[n+]2cc([N-]C(=O)Nc3cccc(C(F)(F)F)c3)on2)c1 [Example 84, (3-(3-(4-methoxypyrimidin-5-yl)benzyl)-1,2,3-oxadiazol-3-ium-5-yl)((3-(trifluoromethyl)phenyl)carbamoyl)amide]	100 to 1000
Cc1ccncc1-c1ccc(C[n+]2cc([N-]C(=O)Nc3cccc(C(F)(F)F)c3)on2)cc1 [Example 85, (3-(4-(4-methylpyridin-3-yl)benzyl)-1,2,3-oxadiazol-3-ium-5-yl)((3-(trifluoromethyl)phenyl)carbamoyl)amide]	< 100

SMILES	EC50 [nM]
Cc1nccnc1-c1ccc(C[n+]2cc([N-]C(=O)Nc3cccc(C(F)(F)F)c3)on2)cc1 [Example 86, (3-(4-(3-methylpyrazin-2-yl)benzyl)-1,2,3-oxadiazol-3-ium-5-yl)((3-(trifluoromethyl)phenyl)carbamoyl)amide]	100 to 1000
Cc1cc(C[n+]2cc([N-]C(=O)Nc3cccc(C(F)(F)F)c3)on2)ccc1-c1cncnc1 [Example 87, (3-(3-methyl-4-(pyrimidin-5-yl)benzyl)-1,2,3-oxadiazol-3-ium-5-yl)((3-(trifluoromethyl)phenyl)carbamoyl)amide]	100 to 1000
Cc1cc(C[n+]2cc([N-]C(=O)Nc3cccc(C(F)(F)F)c3)on2)ccc1-c1c(C)noc1C [Example 88, (3-(4-(3,5-Dimethylisoxazol-4-yl)-3-methylbenzyl)-1,2,3-oxadiazol-3-ium-5-yl)((3-(trifluoromethyl)phenyl)carbamoyl)amide]	< 100
Cc1nc(OCCO)ncc1-c1ccc(C[n+]2cc([N-]C(=O)Nc3cccc(C(F)(F)F)c3)on2)cc1 [Example 89, (3-(4-(2-(2-hydroxyethoxy)-4-methylpyrimidin-5-yl)benzyl)-1,2,3-oxadiazol-3-ium-5-yl)((3-(trifluoromethyl)phenyl)carbamoyl)amide]	100 to 1000
COc1ncc(-c2ccc(C[n+]3cc([N-]C(=O)Nc4cccc(C(F)(F)F)c4)on3)cc2)c(C)n1 [Example 90, (3-(4-(2-Methoxy-4-methylpyrimidin-5-yl)benzyl)-1,2,3-oxadiazol-3-ium-5-yl)((3-(trifluoromethyl)phenyl)carbamoyl)amide]	< 100
O=C([N-]c1c[n+](Cc2ccc(-c3cncnc3C3CC3)cc2)no1)Nc1cccc(C(F)(F)F)c1 [Example 91, (3-(4-(4-cyclopropylpyrimidin-5-yl)benzyl)-1,2,3-oxadiazol-3-ium-5-yl)((3-(trifluoromethyl)phenyl)carbamoyl)amide]	100 to 1000
Cc1ncccc1-c1ccc(C[n+]2cc([N-]C(=O)Nc3cccc(C(F)(F)F)c3)on2)cc1 [Example 92, (3-(4-(2-methylpyridin-3-yl)benzyl)-1,2,3-oxadiazol-3-ium-5-yl)((3-(trifluoromethyl)phenyl)carbamoyl)amide]	< 100
Cc1cnncc1-c1ccc(C[n+]2cc([N-]C(=O)Nc3cccc(C(F)(F)F)c3)on2)cc1 [Example 93, (3-(4-(5-methylpyridazin-4-yl)benzyl)-1,2,3-oxadiazol-3-ium-5-yl)((3-(trifluoromethyl)phenyl)carbamoyl)amide]	< 100
Cc1noc(C)c1-c1cccc(C[n+]2cc([N-]C(=O)Nc3cccc(C(F)(F)F)c3)on2)c1 [Example 94, (3-(3-(3,5-dimethylisoxazol-4-yl)benzyl)-1,2,3-oxadiazol-3-ium-5-yl)((3-(trifluoromethyl)phenyl)carbamoyl)amide]	100 to 1000
Cc1c(-c2ccc(C[n+]3cc([N-]C(=O)Nc4cccc(C(F)(F)F)c4)on3)cc2)cnn1C [Example 95, (3-(4-(1,5-dimethyl-1H-pyrazol-4-yl)benzyl)-1,2,3-oxadiazol-3-ium-5-yl)((3-(trifluoromethyl)phenyl)carbamoyl)amide]	100 to 1000
Cc1nn(C)cc1-c1ccc(C[n+]2cc([N-]C(=O)Nc3cccc(C(F)(F)F)c3)on2)cc1 [Example 96, (3-(4-(1,3-dimethyl-1H-pyrazol-4-yl)benzyl)-1,2,3-oxadiazol-3-ium-5-yl)((3-(trifluoromethyl)phenyl)carbamoyl)amide]	100 to 1000
Cc1nn(C)c(C)c1-c1ccc(C[n+]2cc([N-]C(=O)Nc3cccc(C(F)(F)F)c3)on2)cc1 [Example 97]	< 100
Cc1ncn(C)c1-c1ccc(C[n+]2cc([N-]C(=O)Nc3cccc(C(F)(F)F)c3)on2)cc1 [Example 98, (3-(4-(1,4-dimethyl-1H-imidazol-5-yl)benzyl)-1,2,3-oxadiazol-3-ium-5-yl)((3-(trifluoromethyl)phenyl)carbamoyl)amide]	100 to 1000
Cc1noc(C)c1-c1ccc([C@H](CN)[n+]2cc([N-]C(=O)Nc3cccc(C(F)(F)F)c3)on2)cc1 [Example 99, (R)-(3-(2-amino-1-(4-(3,5-dimethylisoxazol-4-yl)phenyl)ethyl)-1,2,3-oxadiazol-3-ium-5-yl)((3-(trifluoromethyl)phenyl)carbamoyl)amide formate]	< 100
O=C([N-]c1c[n+](Cc2csc(-c3cncnc3)c2)no1)Nc1cccc(C(F)(F)F)c1 [Example 100, (3-((5-(pyrimidin-5-yl)thiophen-3-yl)methyl)-1,2,3-oxadiazol-3-ium-5-yl)((3-(trifluoromethyl)phenyl)carbamoyl)amide]	100 to 1000
Cc1cc(C[n+]2cc([N-]C(=O)Nc3cccc(C(F)(F)F)c3)on2)ccc1-c1cncnc1C [Example 101, (3-(3-methyl-4-(4-methylpyrimidin-5-yl)benzyl)-1,2,3-oxadiazol-3-ium-5-yl)((3-(trifluoromethyl)phenyl)carbamoyl)amide]	< 100
